Publication PMC6353076, “Impact of CodY protein on metabolism, sporulation and virulence in Clostridioides difficile ribotype 027” (PLoS ONE, 2019)

Molecular target: T1, CdCodY GAF domain (Clostridioides difficile, UniProt Q18BE1)
T1 construct: gene codY; N-terminal GAF domain, CdCodY(1-156); six molecules in the asymmetric unit
Experiment: X-ray crystal structure, […] A
Format: binding
Conditions: GAF-domain effector pocket; contacts N40, Y42, D60, S62, F74, F101, E104, K110, S130

T1 sequence (Q18BE1 entry or part of it): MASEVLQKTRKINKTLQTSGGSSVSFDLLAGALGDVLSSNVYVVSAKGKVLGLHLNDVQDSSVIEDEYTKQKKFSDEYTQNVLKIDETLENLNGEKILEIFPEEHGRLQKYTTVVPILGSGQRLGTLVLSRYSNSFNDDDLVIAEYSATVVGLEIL

In the case of `CC[C@H](C)[C@H](N)C(=O)O` [isoleucine], the “X-ray crystal structure, 1.7 A” value was “The crystal structure of the GAF domain of CdCodY bound to isoleucine was solved”.
